{"source": "paper PMC6120666", "about": "(The EMBO Journal, 2018)", "assay_in_all_cases": "Drug affinity chromatography with c-ponatinib and LC-MS/MS (ponatinib interactome)", "type_in_all_cases": "binding", "key": {"[1]": {"biological_target": "T1, proteins of U2OS cell lysate (Homo sapiens, UniProt Q13428)", "T1 construct": "Proteins enriched by c-ponatinib from U2OS cell lysate; endogenous in cells; host or cells: U2OS cell lysate", "details": "TCOF1, Treacle protein", "how_it_was_run": "(§1)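 Proteins were identified by nano-UPLC–MS/MS after elution with formic acid and trypsin digestion. They were captured from U2OS lysate (2 mg protein per pulldown, NP-40 buffer) on amine-coupled NHS beads during a 2 h incubation at 4 °C.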"}, "[2]": {"biological_target": "T2, proteins of U2OS cell lysate (Homo sapiens, UniProt Q6PJG6)", "T2 construct": "Proteins enriched by c-ponatinib from U2OS cell lysate; endogenous in cells; host or cells: U2OS cell lysate", "details": "BRAT1, BRCA1-associated ATM activator 1", "how_it_was_run": "as §1"}, "[3]": {"biological_target": "T3, proteins of U2OS cell lysate (Homo sapiens, UniProt P43487)", "T3 construct": "Proteins enriched by c-ponatinib from U2OS cell lysate; endogenous in cells; host or cells: U2OS cell lysate", "T3 sequence (P43487 whole entry)": "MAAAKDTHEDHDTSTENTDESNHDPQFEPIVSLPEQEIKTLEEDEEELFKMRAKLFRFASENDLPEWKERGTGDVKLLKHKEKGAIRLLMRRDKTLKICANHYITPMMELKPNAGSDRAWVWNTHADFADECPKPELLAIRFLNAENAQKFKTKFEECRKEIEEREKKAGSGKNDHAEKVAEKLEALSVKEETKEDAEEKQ", "details": "RANBP1, Ran-specific GTPase-activating protein", "how_it_was_run": "as §1"}, "[4]": {"biological_target": "T4, proteins of U2OS cell lysate (Homo sapiens, UniProt O43318)", "T4 construct": "Proteins enriched by c-ponatinib from U2OS cell lysate; endogenous in cells; host or cells: U2OS cell lysate", "T4 sequence (O43318 whole entry)": "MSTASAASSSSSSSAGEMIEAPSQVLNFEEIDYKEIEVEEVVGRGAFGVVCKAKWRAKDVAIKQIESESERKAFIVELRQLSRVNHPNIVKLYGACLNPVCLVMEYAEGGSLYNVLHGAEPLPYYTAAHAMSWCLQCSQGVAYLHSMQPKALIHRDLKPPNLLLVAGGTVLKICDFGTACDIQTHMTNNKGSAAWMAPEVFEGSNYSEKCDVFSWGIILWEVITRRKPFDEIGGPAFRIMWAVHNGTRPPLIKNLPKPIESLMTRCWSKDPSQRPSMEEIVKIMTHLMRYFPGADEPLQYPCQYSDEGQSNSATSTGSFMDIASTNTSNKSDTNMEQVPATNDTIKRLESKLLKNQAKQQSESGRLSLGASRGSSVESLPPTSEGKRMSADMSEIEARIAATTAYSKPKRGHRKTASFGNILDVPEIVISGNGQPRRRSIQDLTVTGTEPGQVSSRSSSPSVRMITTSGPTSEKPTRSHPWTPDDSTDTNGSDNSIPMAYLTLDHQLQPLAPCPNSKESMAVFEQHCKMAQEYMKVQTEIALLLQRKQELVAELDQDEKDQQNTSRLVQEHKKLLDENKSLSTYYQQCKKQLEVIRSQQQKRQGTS", "details": "MAP3K7;DKFZp586F0420, Mitogen-activated protein kinase kinase kinase 7", "how_it_was_run": "as §1"}, "[5]": {"biological_target": "T5, proteins of U2OS cell lysate (Homo sapiens, UniProt P62491)", "T5 construct": "Proteins enriched by c-ponatinib from U2OS cell lysate; endogenous in cells; host or cells: U2OS cell lysate", "details": "RAB11A;RAB11B, Ras-related protein Rab-11A", "how_it_was_run": "as §1"}, "[6]": {"biological_target": "T6, proteins of U2OS cell lysate (Homo sapiens, UniProt P07305)", "T6 construct": "Proteins enriched by c-ponatinib from U2OS cell lysate; endogenous in cells; host or cells: U2OS cell lysate", "T6 sequence (P07305 whole entry)": "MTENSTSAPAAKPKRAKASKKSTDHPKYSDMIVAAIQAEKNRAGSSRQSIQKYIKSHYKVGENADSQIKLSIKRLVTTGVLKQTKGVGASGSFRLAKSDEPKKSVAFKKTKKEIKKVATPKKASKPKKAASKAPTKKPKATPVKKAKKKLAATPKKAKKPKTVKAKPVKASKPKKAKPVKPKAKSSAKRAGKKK", "details": "H1F0, Histone H1.0", "how_it_was_run": "as §1"}, "[7]": {"biological_target": "T7, proteins of U2OS cell lysate (Homo sapiens, UniProt P09496)", "T7 construct": "Proteins enriched by c-ponatinib from U2OS cell lysate; endogenous in cells; host or cells: U2OS cell lysate", "details": "CLTA, Clathrin light chain A", "how_it_was_run": "as §1"}, "[8]": {"biological_target": "T8, proteins of U2OS cell lysate (Homo sapiens, UniProt P62906)", "T8 construct": "Proteins enriched by c-ponatinib from U2OS cell lysate; endogenous in cells; host or cells: U2OS cell lysate", "details": "RPL10A, 60S ribosomal protein L10a", "how_it_was_run": "as §1"}, "[9]": {"biological_target": "T9, proteins of U2OS cell lysate (Homo sapiens, UniProt O75935)", "T9 construct": "Proteins enriched by c-ponatinib from U2OS cell lysate; endogenous in cells; host or cells: U2OS cell lysate", "details": "DCTN3, Dynactin subunit 3", "how_it_was_run": "as §1"}, "[10]": {"biological_target": "T10, proteins of U2OS cell lysate (Homo sapiens, UniProt P13861)", "T10 construct": "Proteins enriched by c-ponatinib from U2OS cell lysate; endogenous in cells; host or cells: U2OS cell lysate", "details": "PRKAR2A, cAMP-dependent protein kinase type II-alpha regulatory subunit", "how_it_was_run": "as §1"}, "[11]": {"biological_target": "T11, proteins of U2OS cell lysate (Homo sapiens, UniProt P68371)", "T11 construct": "Proteins enriched by c-ponatinib from U2OS cell lysate; endogenous in cells; host or cells: U2OS cell lysate", "details": "TUBB4B;TUBB8, Tubulin beta-4B chain", "how_it_was_run": "as §1"}, "[12]": {"biological_target": "T12, proteins of U2OS cell lysate (Homo sapiens, UniProt Q8WWI1)", "T12 construct": "Proteins enriched by c-ponatinib from U2OS cell lysate; endogenous in cells; host or cells: U2OS cell lysate", "T12 sequence (Q8WWI1 whole entry, the tested form may be a part)": "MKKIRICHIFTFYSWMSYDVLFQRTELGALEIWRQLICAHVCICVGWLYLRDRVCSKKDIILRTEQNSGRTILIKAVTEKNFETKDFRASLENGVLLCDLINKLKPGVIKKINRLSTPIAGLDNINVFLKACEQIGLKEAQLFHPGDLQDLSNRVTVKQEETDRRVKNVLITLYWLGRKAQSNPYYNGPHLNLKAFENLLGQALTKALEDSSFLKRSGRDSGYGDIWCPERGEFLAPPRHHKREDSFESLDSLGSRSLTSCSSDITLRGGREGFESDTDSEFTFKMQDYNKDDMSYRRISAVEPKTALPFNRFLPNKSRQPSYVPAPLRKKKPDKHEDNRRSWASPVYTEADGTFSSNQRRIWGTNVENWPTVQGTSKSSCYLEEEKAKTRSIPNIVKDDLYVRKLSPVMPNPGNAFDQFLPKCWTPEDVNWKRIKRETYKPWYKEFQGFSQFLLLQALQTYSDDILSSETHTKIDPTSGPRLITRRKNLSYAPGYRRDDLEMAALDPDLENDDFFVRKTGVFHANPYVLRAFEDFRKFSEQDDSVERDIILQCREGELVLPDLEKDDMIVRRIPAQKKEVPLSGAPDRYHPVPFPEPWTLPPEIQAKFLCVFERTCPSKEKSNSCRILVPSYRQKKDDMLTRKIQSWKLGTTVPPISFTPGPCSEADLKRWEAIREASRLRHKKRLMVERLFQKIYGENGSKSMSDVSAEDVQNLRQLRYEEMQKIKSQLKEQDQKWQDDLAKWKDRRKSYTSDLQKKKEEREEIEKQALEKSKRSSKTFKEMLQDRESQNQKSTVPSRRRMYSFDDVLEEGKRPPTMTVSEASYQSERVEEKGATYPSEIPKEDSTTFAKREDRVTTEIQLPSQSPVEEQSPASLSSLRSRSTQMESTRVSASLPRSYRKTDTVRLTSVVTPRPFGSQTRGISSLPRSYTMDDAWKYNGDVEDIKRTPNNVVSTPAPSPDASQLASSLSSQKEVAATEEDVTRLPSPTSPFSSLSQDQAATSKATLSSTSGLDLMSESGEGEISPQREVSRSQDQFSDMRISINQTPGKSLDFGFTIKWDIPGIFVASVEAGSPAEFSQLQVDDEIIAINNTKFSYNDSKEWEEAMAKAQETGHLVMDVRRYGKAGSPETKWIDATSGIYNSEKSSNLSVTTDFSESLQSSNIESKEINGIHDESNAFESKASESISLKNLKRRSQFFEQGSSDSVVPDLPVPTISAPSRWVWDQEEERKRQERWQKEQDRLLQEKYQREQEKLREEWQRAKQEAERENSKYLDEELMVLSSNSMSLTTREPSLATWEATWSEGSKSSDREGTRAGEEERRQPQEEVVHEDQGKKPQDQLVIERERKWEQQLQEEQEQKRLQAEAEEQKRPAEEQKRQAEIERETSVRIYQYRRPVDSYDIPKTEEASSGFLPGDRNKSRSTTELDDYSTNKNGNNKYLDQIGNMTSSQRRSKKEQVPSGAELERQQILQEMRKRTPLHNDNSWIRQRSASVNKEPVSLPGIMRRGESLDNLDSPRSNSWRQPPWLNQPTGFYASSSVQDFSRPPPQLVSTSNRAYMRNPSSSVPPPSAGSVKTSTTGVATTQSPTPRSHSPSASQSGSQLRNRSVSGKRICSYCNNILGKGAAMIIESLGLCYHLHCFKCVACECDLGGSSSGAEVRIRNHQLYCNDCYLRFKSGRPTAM", "details": "LMO7, LIM domain only protein 7", "how_it_was_run": "as §1"}, "[13]": {"biological_target": "T13, proteins of U2OS cell lysate (Homo sapiens, UniProt Q7L014)", "T13 construct": "Proteins enriched by c-ponatinib from U2OS cell lysate; endogenous in cells; host or cells: U2OS cell lysate", "T13 sequence (Q7L014 whole entry)": "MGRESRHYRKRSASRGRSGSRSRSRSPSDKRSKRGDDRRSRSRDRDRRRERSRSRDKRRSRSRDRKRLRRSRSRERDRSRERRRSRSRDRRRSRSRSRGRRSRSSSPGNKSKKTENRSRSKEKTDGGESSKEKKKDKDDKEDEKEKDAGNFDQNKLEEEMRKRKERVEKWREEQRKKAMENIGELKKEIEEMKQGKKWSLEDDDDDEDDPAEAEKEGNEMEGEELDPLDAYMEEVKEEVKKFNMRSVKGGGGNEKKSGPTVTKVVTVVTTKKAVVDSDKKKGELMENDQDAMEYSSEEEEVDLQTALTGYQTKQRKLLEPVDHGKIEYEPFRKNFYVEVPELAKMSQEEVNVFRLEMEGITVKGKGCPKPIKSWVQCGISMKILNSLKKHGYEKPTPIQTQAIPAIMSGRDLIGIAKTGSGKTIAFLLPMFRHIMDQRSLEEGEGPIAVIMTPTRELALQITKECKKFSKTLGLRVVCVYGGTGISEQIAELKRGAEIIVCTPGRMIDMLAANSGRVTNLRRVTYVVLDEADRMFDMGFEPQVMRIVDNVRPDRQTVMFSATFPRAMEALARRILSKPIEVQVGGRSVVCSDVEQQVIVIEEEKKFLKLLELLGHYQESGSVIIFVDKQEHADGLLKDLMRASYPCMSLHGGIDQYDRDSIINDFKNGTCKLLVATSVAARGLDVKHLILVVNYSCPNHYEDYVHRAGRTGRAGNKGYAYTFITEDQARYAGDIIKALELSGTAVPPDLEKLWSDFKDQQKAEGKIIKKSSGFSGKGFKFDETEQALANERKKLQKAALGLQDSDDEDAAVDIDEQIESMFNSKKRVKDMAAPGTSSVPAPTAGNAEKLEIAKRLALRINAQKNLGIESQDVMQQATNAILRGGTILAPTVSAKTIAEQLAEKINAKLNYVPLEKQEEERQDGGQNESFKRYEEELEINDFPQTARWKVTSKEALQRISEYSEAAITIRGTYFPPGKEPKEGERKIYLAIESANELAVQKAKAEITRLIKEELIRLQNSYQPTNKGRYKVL", "details": "DDX46, Probable ATP-dependent RNA helicase DDX46", "how_it_was_run": "as §1"}, "[14]": {"biological_target": "T14, proteins of U2OS cell lysate (Homo sapiens, UniProt P14314)", "T14 construct": "Proteins enriched by c-ponatinib from U2OS cell lysate; endogenous in cells; host or cells: U2OS cell lysate", "T14 sequence (P14314 15-528)": "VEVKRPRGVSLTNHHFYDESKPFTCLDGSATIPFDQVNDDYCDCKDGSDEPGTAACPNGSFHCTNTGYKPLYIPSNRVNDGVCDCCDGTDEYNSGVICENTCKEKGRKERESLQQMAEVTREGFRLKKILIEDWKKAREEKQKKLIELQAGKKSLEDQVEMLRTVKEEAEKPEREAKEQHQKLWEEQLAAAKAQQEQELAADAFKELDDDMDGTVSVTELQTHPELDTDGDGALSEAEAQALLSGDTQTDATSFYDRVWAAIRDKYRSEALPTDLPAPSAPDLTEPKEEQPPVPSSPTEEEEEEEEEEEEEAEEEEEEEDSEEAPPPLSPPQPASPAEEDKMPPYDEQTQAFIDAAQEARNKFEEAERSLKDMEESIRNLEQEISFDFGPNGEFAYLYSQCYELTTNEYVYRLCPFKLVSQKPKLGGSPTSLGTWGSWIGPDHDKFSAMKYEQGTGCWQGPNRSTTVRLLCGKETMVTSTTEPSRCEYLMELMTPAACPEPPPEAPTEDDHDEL", "details": "PRKCSH, Glucosidase 2 subunit beta", "how_it_was_run": "as §1"}, "[15]": {"biological_target": "T15, proteins of U2OS cell lysate (Homo sapiens, UniProt P61026)", "T15 construct": "Proteins enriched by c-ponatinib from U2OS cell lysate; endogenous in cells; host or cells: U2OS cell lysate", "details": "RAB10, Ras-related protein Rab-10", "how_it_was_run": "as §1"}, "[16]": {"biological_target": "T16, proteins of U2OS cell lysate (Homo sapiens, UniProt O14818)", "T16 construct": "Proteins enriched by c-ponatinib from U2OS cell lysate; endogenous in cells; host or cells: U2OS cell lysate", "T16 sequence (O14818 whole entry)": "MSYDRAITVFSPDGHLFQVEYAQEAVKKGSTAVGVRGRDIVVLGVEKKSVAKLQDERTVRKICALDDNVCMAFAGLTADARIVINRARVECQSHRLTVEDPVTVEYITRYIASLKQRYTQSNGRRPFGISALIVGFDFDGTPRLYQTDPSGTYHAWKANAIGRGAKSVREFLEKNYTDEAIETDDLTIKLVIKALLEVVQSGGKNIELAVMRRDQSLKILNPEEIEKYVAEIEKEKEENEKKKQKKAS", "details": "PSMA7;PSMA8, Proteasome subunit alpha type-7", "how_it_was_run": "as §1"}, "[17]": {"biological_target": "T17, proteins of U2OS cell lysate (Homo sapiens, UniProt Q92616)", "T17 construct": "Proteins enriched by c-ponatinib from U2OS cell lysate; endogenous in cells; host or cells: U2OS cell lysate", "details": "GCN1L1, Translational activator GCN1", "how_it_was_run": "as §1"}, "[18]": {"biological_target": "T18, proteins of U2OS cell lysate (Homo sapiens, UniProt Q01650)", "T18 construct": "Proteins enriched by c-ponatinib from U2OS cell lysate; endogenous in cells; host or cells: U2OS cell lysate", "T18 sequence (Q01650 whole entry)": "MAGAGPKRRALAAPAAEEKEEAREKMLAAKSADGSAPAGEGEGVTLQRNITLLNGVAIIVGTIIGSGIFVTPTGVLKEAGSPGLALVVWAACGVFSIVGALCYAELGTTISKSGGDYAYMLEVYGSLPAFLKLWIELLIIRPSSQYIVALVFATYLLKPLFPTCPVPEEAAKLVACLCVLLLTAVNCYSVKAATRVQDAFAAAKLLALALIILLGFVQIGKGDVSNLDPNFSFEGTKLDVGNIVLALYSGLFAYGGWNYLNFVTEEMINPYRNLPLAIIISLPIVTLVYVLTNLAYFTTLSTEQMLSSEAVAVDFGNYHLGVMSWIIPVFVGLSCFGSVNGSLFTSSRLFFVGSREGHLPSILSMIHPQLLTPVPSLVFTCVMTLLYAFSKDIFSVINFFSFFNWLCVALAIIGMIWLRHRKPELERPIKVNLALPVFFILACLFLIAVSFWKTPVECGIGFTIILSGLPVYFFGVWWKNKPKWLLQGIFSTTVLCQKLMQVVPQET", "details": "SLC7A5, Large neutral amino acids transporter small subunit 1", "how_it_was_run": "as §1"}}}
{"smiles": "Cc1ccc(C(=O)Nc2ccc(CN3CCN(C)CC3)c(C(F)(F)F)c2)cc1C#Cc1cnc2cccnn12", "note": "[PON]", "values": [{"measurement": "Average LFQ PON_WT", "setting": "[1]", "result": 20.5654}, {"measurement": "Average LFQ PON_WT", "setting": "[2]", "result": 19.9568}, {"measurement": "Average LFQ PON_WT", "setting": "[3]", "result": 20.4588}, {"measurement": "Average LFQ PON_WT", "setting": "[4]", "result": 25.3656}, {"measurement": "Average LFQ PON_WT", "setting": "[5]", "result": 22.3634}, {"measurement": "Average LFQ PON_WT", "setting": "[6]", "result": 21.4215}, {"measurement": "Average LFQ PON_WT", "setting": "[7]", "result": 24.9334}, {"measurement": "Average LFQ PON_WT", "setting": "[8]", "result": 19.7018}, {"measurement": "Average LFQ PON_WT", "setting": "[9]", "result": 20.8844}, {"measurement": "Average LFQ PON_WT", "setting": "[10]", "result": 19.7853}, {"measurement": "Average LFQ PON_WT", "setting": "[11]", "result": 26.1041}, {"measurement": "Average LFQ PON_WT", "setting": "[12]", "result": 20.1594}, {"measurement": "Average LFQ PON_WT", "setting": "[13]", "result": 21.404}, {"measurement": "Average LFQ PON_WT", "setting": "[14]", "result": 21.2991}, {"measurement": "Average LFQ PON_WT", "setting": "[15]", "result": 19.7729}, {"measurement": "Average LFQ PON_WT", "setting": "[16]", "result": 22.0977}, {"measurement": "Average LFQ PON_WT", "setting": "[17]", "result": 23.5357}, {"measurement": "Average LFQ PON_WT", "setting": "[18]", "result": 21.4059}]}
